Assay results published in patent US10273222B2 (CELGENE QUANTICEL RESEARCH, INC., priority 2013, dated 2019).

How the values were obtained:
FBXL10 = FBXL10 (Homo sapiens (Human), UniProt Q8NHM5); assay: FBXL10 in vitro enzyme inhibition assay (AlphaScreen); assay type: biochemical
Protocol: Reaction product was determined quantitatively by AlphaScreen detection after the addition of detection reagents anti-H3K36me1 antibody, AlphaScreen® Streptavidin-coated Donor beads, and AlphaScreen® Protein A Acceptor beads in 50 mM HEPES, pH7.3, 10 mM NaCl, 0.005% Brij35, 5 mM EDTA, 2 mg/ml BSA to final 10 μg/ml beads.
Plates were incubated at room temperature for 40 minutes, followed by addition of 3 μl of 50 μg/ml AlphaScreen® Streptavidin-coated Donor beads and AlphaScreen® Protein A Acceptor beads in 50 mM HEPES, pH7.3, 10 mM NaCl, 0.005% Brij35, 5 mM EDTA, 2 mg/ml BSA. Plates were read by EnVisionMultilabel Reader in AlphaScreen mode after a minimum of 2 hour or up to overnight incubation at room temperature. The AlphaScreen signal for each well was used to determine inhibition constant (IC50).

JMJD2C = JMJD2C (Homo sapiens (Human), UniProt Q9H3R0); assay: JMJD2C in vitro enzyme inhibition assay (TR-FRET); assay type: biochemical
JMJD2C, sequence (Q9H3R0 2-372): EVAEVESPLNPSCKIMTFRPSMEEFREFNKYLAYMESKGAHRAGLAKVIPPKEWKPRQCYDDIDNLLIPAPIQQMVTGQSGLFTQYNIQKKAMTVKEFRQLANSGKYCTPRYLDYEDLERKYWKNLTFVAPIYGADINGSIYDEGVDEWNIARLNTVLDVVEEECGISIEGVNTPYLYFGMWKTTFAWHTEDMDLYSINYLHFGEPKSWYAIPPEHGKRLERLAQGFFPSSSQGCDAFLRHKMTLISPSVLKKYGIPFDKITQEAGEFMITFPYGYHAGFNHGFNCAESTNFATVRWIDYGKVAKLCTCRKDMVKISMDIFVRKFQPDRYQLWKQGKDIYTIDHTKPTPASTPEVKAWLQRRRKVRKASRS
Protocol: This assay determines the ability of a test compound to inhibit Jarid1A, Jarid1B, JMJD2C, and JMJD2A demethylase activity. […] Baculovirus expressed JMJD2C (GenBank Accession #BC143571, AA 2-372) was purchased from BPS Bioscience (Cat#50105).
The ability of test compounds to inhibit the activity of JMJD2C was determined in 384-well plate format under the following reaction conditions: 0.3 nM JMJD2C, 300 nM H3K9me3-biotin labeled peptide (Anaspec cat #64360), 2 μM alpha-ketoglutaric acid in assay buffer of 50 mM HEPES, pH7.3, 0.005% Brij35, 0.5 mM TCEP, 0.2 mg/ml BSA, 50 μM sodium L-ascorbate, and 2 μM ammonium iron(II) sulfate. Reaction product was determined quantitatively by TR-FRET after the addition of detection reagent Phycolink Streptavidin-allophycocyanin (Prozyme) and Europium-anti-di-methylated histone H3 lysine 9 (H3K9me2) antibody (PerkinElmer) in the presence of 5 mM EDTA in LANCE detection buffer (PerkinElmer) at a final concentration of 50 nM and 1 nM, respectively.
The assay reaction was initiated by the following: 2 μl of the mixture of 900 nM H3K9me3-biotin labeled peptide and 6 μM alpha-ketoglutaric acid with 2 μl of 11-point serial diluted inhibitor in 3% DMSO were added to each well of the plate, followed by the addition of 2 μl of 0.9 nM JMJD2C to initiate the reaction. The reaction mixture was incubated at room temperature for 30 minutes, and terminated by the addition of 6 μl of 5 mM EDTA in LANCE detection buffer containing 100 nM Phycolink Streptavidin-allophycocyanin and 2 nM Europium-anti-H3K9me2 antibody. Plates were read by EnVisionMultilabel Reader in TR-FRET mode (excitation at 320 nm, emission at 615 nm and 665 nm) after 1 hour incubation at room temperature. A ratio was calculated (665/615) for each well and fitted to determine inhibition constant (IC50).

FBXL10, sequence (Q8NHM5 1-650): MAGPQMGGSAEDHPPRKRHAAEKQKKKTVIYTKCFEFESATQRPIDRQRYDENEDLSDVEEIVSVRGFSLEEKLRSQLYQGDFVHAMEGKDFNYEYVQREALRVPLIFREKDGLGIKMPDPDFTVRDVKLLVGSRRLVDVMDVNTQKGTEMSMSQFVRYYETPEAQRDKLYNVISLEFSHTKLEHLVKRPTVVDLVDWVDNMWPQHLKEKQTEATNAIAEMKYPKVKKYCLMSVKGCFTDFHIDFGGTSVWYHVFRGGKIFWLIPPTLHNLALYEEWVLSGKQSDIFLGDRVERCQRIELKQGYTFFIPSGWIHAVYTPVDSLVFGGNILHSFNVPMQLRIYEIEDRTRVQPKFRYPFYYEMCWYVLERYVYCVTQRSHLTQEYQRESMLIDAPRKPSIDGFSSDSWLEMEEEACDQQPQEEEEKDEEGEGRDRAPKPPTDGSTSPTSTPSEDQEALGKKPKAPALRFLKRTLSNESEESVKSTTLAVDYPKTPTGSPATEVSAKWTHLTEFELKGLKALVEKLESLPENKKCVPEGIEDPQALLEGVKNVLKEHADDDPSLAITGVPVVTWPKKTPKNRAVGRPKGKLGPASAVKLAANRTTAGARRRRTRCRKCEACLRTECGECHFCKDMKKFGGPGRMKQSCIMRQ

IC50 (FBXL10) [µM] | IC50 (JMJD2C) [µM] | Structure (SMILES)
≤ 0.1 | – | Cn1cnc(-c2cc(-c3nn[nH]n3)ccn2)c1-c1ccc(Cl)c(OCc2ccccc2)c1 [Example 161, 2-[5-(4-chloro-3-phenylmethoxyphenyl)-1-methylimidazol-4-yl]-4-(2H-tetrazol-5-yl)pyridi]
0.1 to 1 | 1 to 10 | Cc1ccc(OCC2CC2)c(-c2c(-c3cc(C(=O)O)ccn3)ncn2C)c1 [Example 123, 2-[5-[2-(cyclopropylmethoxy)-5-methylphenyl]-1-methylimidazol-4-yl]pyridine-4-carboxylic acid]
≤ 0.1 | 1 to 10 | Clc1ccc(-c2c(-c3cc(-c4nn[nH]n4)ccn3)ncn2CC2CC2)cc1 [Example 136, 2-[5-(4-chlorophenyl)-1-(cyclopropylmethyl)imidazol-4-yl]-4-(2H-tetrazol-5-yl)pyridine]
≤ 0.1 | 1 to 10 | Cn1cnc(-c2cc(-c3nn[nH]n3)ccn2)c1-c1ccc(F)c2ccccc12 [Example 164, 2-[5-(4-fluoronaphthalen-1-yl)-1-methylimidazol-4-yl]-4-(2H-tetrazol-5-yl)pyridine]
≤ 0.1 | 1 to 10 | O=C(O)c1ccnc(-c2ncn(Cc3ccccc3Cl)c2-c2ccc(F)cc2)c1 [Example 127, 2-[1-[(2-chlorophenyl)methyl]-5-(4-fluorophenyl)imidazol-4-yl]pyridine-4-carboxylic acid]
≤ 0.1 | 1 to 10 | Cn1cnc(-c2cc(-c3nn[nH]n3)ccn2)c1-c1ccc(F)c(OCc2ccccc2)c1 [Example 160, 2-[5-(4-fluoro-3-phenylmethoxyphenyl)-1-methylimidazol-4-yl]-4-(2H-tetrazol-5-yl)pyridine]
≤ 0.1 | 1 to 10 | Clc1cccc(Cn2cnc(-c3cc(-c4nn[nH]n4)ccn3)c2)c1Cl [Example 158, 2-[1-[(2,3-dichlorophenyl)methyl]imidazol-4-yl]-4-(2H-tetrazol-5-yl)pyridine]
≤ 0.1 | 1 to 10 | Cn1cnc(-c2cc(-c3nn[nH]n3)ccn2)c1-c1ccc(F)c(C(=O)NCc2ccccc2)c1 [Example 65, N-benzyl-2-fluoro-5-[3-methyl-5-[4-(2H-tetrazol-5-yl)pyridin-2-yl]imidazol-4-yl]benzamide]
0.1 to 1 | 1 to 10 | CC(C)COc1ccccc1Cn1cnc(-c2cc(-c3nn[nH]n3)ccn2)c1 [Example 153, 2-[1-[[2-(2-methylpropoxy)phenyl]methyl]imidazol-4-yl]-4-(2H-tetrazol-5-yl)pyridine]
≤ 0.1 | 1 to 10 | Clc1ccc(Cn2cnc(-c3cc(-c4nn[nH]n4)ccn3)c2)cc1 [Example 131, 2-[1-[(4-chlorophenyl)methyl]imidazol-4-yl]-4-(2H-tetrazol-5-yl)pyridine]
≤ 0.1 | 1 to 10 | CC(c1ccccc1Cl)n1cnc(-c2cc(-c3nn[nH]n3)ccn2)c1 (stereo not shown) [Example 157, 2-[1-[1-(2-chlorophenyl)ethyl]imidazol-4-yl]-4-(2H-tetrazol-5-yl)pyridine]
≤ 0.1 | 1 to 10 | Clc1cccc(Cn2cnc(-c3cc(-c4nn[nH]n4)ccn3)c2)c1 [Example 130, 2-[1-[(3-chlorophenyl)methyl]imidazol-4-yl]-4-(2H-tetrazol-5-yl)pyridine]
≤ 0.1 | 1 to 10 | c1ccc2c(c1)CCC(Cn1cnc(-c3cc(-c4nn[nH]n4)ccn3)c1)C2 (stereo not shown) [Example 146, 2-[1-(1,2,3,4-tetrahydronaphthalen-2-ylmethyl)imidazol-4-yl]-4-(2H-tetrazol-5-yl)pyridine]
0.1 to 1 | 1 to 10 | Cn1cnc(-c2cc(-c3nn[nH]n3)ccn2)c1-c1ccc(F)c(OCC(F)(F)F)c1 [Example 159, 2-[5-[4-fluoro-3-(2,2,2-trifluoroethoxy)phenyl]-1-methylimidazol-4-yl]-4-(2H-tetrazol-5-yl)pyridine]
0.1 to 1 | 1 to 10 | Fc1ccc(-c2c(-c3cc(-c4nn[nH]n4)ccn3)ncn2Cc2cccc(Cl)c2)c(OCC2CC2)c1 [Example 169, 2-(1-(3-chlorobenzyl)-5-(2-(cyclopropylmethoxy)-4-fluorophenyl)-1H-imidazol-4-yl)-4-(2H-tetrazol-5-yl)pyridine]
≤ 0.1 | 1 to 10 | Fc1ccc(-c2c(-c3cc(-c4nn[nH]n4)ccn3)ncn2CC2CC2)cc1 [Example 135, 2-[1-(cyclopropylmethyl)-5-(4-fluorophenyl)imidazol-4-yl]-4-(2H-tetrazol-5-yl)pyridine]
≤ 0.1 | 1 to 10 | Cn1cnc(-c2cc(C(=O)O)ccn2)c1-c1cc(F)c(F)cc1OCC1CC1 [Example 121, 2-[5-[2-(cyclopropylmethoxy)-4,5-difluorophenyl]-1-methylimidazol-4-yl]pyridine-4-carboxylic acid]

IC50 (FBXL10) [µM] | IC50 (JMJD2C) [µM] | Structure (SMILES)
≤ 0.1 | 1 to 10 | Fc1ccc(-c2c(-c3cc(-c4nn[nH]n4)ccn3)ncn2Cc2ccccc2Cl)cc1 [Example 137, 2-[1-[(2-chlorophenyl)methyl]-5-(4-fluorophenyl)imidazol-4-yl]-4-(2H-tetrazol-5-yl)pyridine]
≤ 0.1 | 0.1 to 1 | O=C(O)c1ccnc(-c2ncn(CC3CC3)c2-c2ccc(F)cc2)c1 [Example 125, 2-[1-(cyclopropylmethyl)-5-(4-fluorophenyl)imidazol-4-yl]pyridine-4-carboxylic acid]
1 to 10 | 1 to 10 | CC(=O)OCn1nnc(-c2ccnc(-c3ncn(Cc4ccccc4Cl)c3-c3ccc(F)cc3)c2)n1 [Example 138, [5-[2-[1-[(2-chlorophenyl)methyl]-5-(4-fluorophenyl)imidazol-4-yl]pyridin-4-yl]tetrazol-2-yl]methyl acetate]
≤ 0.1 | 0.1 to 1 | O=C(O)c1ccnc(-c2ncn(CCc3ccccc3Cl)c2-c2ccc(F)cc2)c1 [Example 124, 2-[1-[2-(2-chlorophenyl)ethyl]-5-(4-fluorophenyl)imidazol-4-yl]pyridine-4-carboxylic acid]
≤ 0.1 | 1 to 10 | Fc1ccc(-c2c(-c3cc(-c4nn[nH]n4)ccn3)ncn2CCc2ccccc2Cl)cc1 [Example 132, 2-[1-[2-(2-chlorophenyl)ethyl]-5-(4-fluorophenyl)imidazol-4-yl]-4-(2H-tetrazol-5-yl)pyridine]
≤ 0.1 | 1 to 10 | Fc1ccc(-c2c(-c3cc(-c4nn[nH]n4)ccn3)ncn2CC(F)(F)F)cc1 [Example 134, 2-[5-(4-fluorophenyl)-1-(2,2,2-trifluoroethyl)imidazol-4-yl]-4-(2H-tetrazol-5-yl)pyridine]
≤ 0.1 | 1 to 10 | Clc1cccc(Cl)c1Cn1cnc(-c2cc(-c3nn[nH]n3)ccn2)c1 [Example 151, 2-[1-[(2,6-dichlorophenyl)methyl]imidazol-4-yl]-4-(2H-tetrazol-5-yl)pyridine]
≤ 0.1 | 1 to 10 | Cn1cnc(-c2cc(-c3nn[nH]n3)ccn2)c1-c1ccc(F)cc1OCc1ccccc1 [Example 148, 2-[5-(4-fluoro-2-phenylmethoxyphenyl)-1-methylimidazol-4-yl]-4-(2H-tetrazol-5-yl)pyridine]
≤ 0.1 | 1 to 10 | O=C(O)c1ccnc(-c2ncn(CC3CC3)c2-c2ccc(Cl)cc2)c1 [Example 126, 2-[5-(4-chlorophenyl)-1-(cyclopropylmethyl)imidazol-4-yl]pyridine-4-carboxylic acid]
≤ 0.1 | 1 to 10 | Cn1cnc(-c2cc(C(=O)O)ccn2)c1-c1c(F)cccc1OCC1CC1 [Example 122, 2-[5-[2-(cyclopropylmethoxy)-6-fluorophenyl]-1-methylimidazol-4-yl]pyridine-4-carboxylic acid]
≤ 0.1 | 0.1 to 1 | O=C(O)c1ccnc(-c2cn(Cc3cccc(C(F)(F)F)c3)cn2)c1 [Example 117, 2-[1-[[3-(trifluoromethyl)phenyl]methyl]imidazol-4-yl]pyridine-4-carboxylic acid]
≤ 0.1 | 1 to 10 | Cn1cnc(-c2cc(-c3nn[nH]n3)ccn2)c1-c1ccc(F)c(O)c1 [Example 162, 2-fluoro-5-[3-methyl-5-[4-(2H-tetrazol-5-yl)pyridin-2-yl]imidazol-4-yl]phenol]
0.1 to 1 | 1 to 10 | Cn1cnc(-c2cc(-c3nn[nH]n3)ccn2)c1-c1ccc(F)c(C(=O)Nc2ccccc2)c1 [Example 163, 2-fluoro-5-[3-methyl-5-[4-(2H-tetrazol-5-yl)pyridin-2-yl]imidazol-4-yl]-N-phenylbenzamide]
1 to 10 | 1 to 10 | CC(C)(C)C(=O)OCn1nnc(-c2ccnc(-c3ncn(Cc4ccccc4Cl)c3-c3ccc(F)cc3)c2)n1 [Example 139, [5-[2-[1-[(2-chlorophenyl)methyl]-5-(4-fluorophenyl)imidazol-4-yl]pyridin-4-yl]tetrazol-2-yl]methyl 2,2-dimethylpropanoate]
1 to 10 | 1 to 10 | CC(C)(C)C(=O)OCn1nnc(-c2ccnc(-c3cn(Cc4ccccc4Cl)cn3)c2)n1 [Example 166, (5-(2-(1-(2-chlorobenzyl)-1H-imidazol-4-yl)pyridin-4-yl)-2H-tetrazol-2-yl)methyl pivalate]
≤ 0.1 | 1 to 10 | FC(F)(F)Oc1ccccc1Cn1cnc(-c2cc(-c3nn[nH]n3)ccn2)c1 [Example 156, 4-(2H-tetrazol-5-yl)-2-[1-[[2-(trifluoromethoxy)phenyl]methyl]imidazol-4-yl]pyridine]
1 to 10 | 1 to 10 | Cn1nnc(-c2ccnc(-c3cn(Cc4ccccc4Cl)cn3)c2)n1 [Example 165, 2-(1-(2-chlorobenzyl)-1H-imidazol-4-yl)-4-(2-methyl-2H-tetrazol-5-yl)pyridine]
